{"source": "patent US8148510B2", "about": "“Antifungal polypeptides” (Pioneer Hi-Bred International, Inc., priority 2004, dated 2012)", "key": {"[1]": {"test_system": "Fusarium verticillioides (FVE)", "assay_type": "cell-based"}, "[2]": {"test_system": "Fusarium graminearum (FGR)", "assay_type": "cell-based", "details": "plate assay, qualitative"}, "[3]": {"test_system": "Colletotrichum graminicola (CGR)", "assay_type": "cell-based", "details": "plate assay, qualitative"}, "Diplodia maydis (DMA)": {"test_system": "Diplodia maydis (DMA)", "assay_type": "cell-based", "details": "plate assay, qualitative"}, "C. graminicola [4]": {"test_system": "C. graminicola", "test": "lower stalk resistance of transgenic maize plants", "assay_type": "in vivo, Colletotrichum graminicola", "details": "T0 transgenic maize, lowest internode inoculated 10 DAP, scored after 21 days, five lowermost internodes; empty vector control 4.0±0.2"}, "[5]": {"test_system": "Fusarium verticillioides (FVE)", "test": "antifungal activity assay of transgenic maize callus extracts", "assay_type": "cell-based", "details": "against FVE, qualitative"}, "[6]": {"test_system": "F. verticilioides line that expresses the reporter gene β-glucuronidase (GUS)", "test": "Fusarium verticillioides challenge assay of maize seedlings (GUS activity)", "assay_type": "in vivo", "details": "maize seedlings transformed with PHP22300; three days after spore exposure; 4 explants per event"}, "C. graminicola [7]": {"test_system": "C. graminicola", "test": "upper stalk resistance of transgenic maize plants", "assay_type": "in vivo, Colletotrichum graminicola", "details": "T0 transgenic maize, uppermost stalk internode, about five days after inoculation, 10 cm^2 area around inoculation site; control 84.7±2.6%"}}, "note": "Entries after “also recorded” stand apart in the source; their conditions may differ. Where two headings read alike, the source gives them in different places.", "data": [{"molecule": "LBNL-9827-1: antifungal polypeptide from Monascus ruber IMV 00127; identical to SEQ ID NO:9 without 3 N-terminal amino acids (LSKFGGECSLKHNTCTYLKGGKNHVVNCGSAANKKCKSDRHHCEYDEHHKRVDCQTPV)", "values": [{"measurement": "antifungal activity against FVE", "setting": "[1]", "value": "active against FVE; also recorded: display antifungal activity"}, {"measurement": "antifungal activity against FGR", "setting": "[2]", "value": "display antifungal activity"}, {"measurement": "antifungal activity against CGR", "setting": "[3]", "value": "display antifungal activity"}, {"measurement": "antifungal activity against DMA", "setting": "Diplodia maydis (DMA)", "value": "display antifungal activity"}]}, {"molecule": "LBNL-5197/8-2: antifungal polypeptide from Penicillium miczyinskii strain K01-17A4 (LSKYGGECSLAHNTCTYLKGGKNQVVACGTAANKRCKTDRHHCEYDEYHKTVDCQTPV)", "values": [{"measurement": "antifungal activity against FVE", "setting": "[1]", "value": "anti-FVE activity; also recorded: display antifungal activity"}, {"measurement": "antifungal activity against FGR", "setting": "[2]", "value": "display antifungal activity"}, {"measurement": "antifungal activity against CGR", "setting": "[3]", "value": "display antifungal activity"}, {"measurement": "antifungal activity against DMA", "setting": "Diplodia maydis (DMA)", "value": "display antifungal activity"}]}, {"molecule": "LBNL-5220: antifungal polypeptide (55 amino acids, mature mass 6174 Da) isolated from Penicillium simplicissimum fermentation broth (LKYTGTCTRANNQCKYKGQNDRDTFVKCPTFANKKCTRDGAPCSFDSYSRAVTCD)", "values": [{"measurement": "mean score (number of internodes showing more than 75% disease)", "setting": "C. graminicola [4]", "value": "2.2±0.1"}, {"measurement": "antifungal activity against FVE", "setting": "[1]", "value": "showed antifungal activity; also recorded: display antifungal activity"}, {"measurement": "antifungal activity of protein produced and isolated from transgenic maize callus", "setting": "[5]", "value": "has antifungal activity"}, {"measurement": "antifungal activity against FGR", "setting": "[2]; listed as SEQ ID NO:1", "value": "showed antifungal activity; also recorded: display antifungal activity"}, {"measurement": "average GUS activity (correlates with fungal biomass) relative to controls", "setting": "[6]", "value": "decrease in average GUS activity"}, {"measurement": "mean percent infected area", "setting": "C. graminicola [7]", "value": "54.4±1.4", "unit": "%"}, {"measurement": "antifungal activity against CGR", "setting": "[3]; listed as SEQ ID NO:1", "value": "showed antifungal activity; also recorded: display antifungal activity"}, {"measurement": "antifungal activity against DMA", "setting": "Diplodia maydis (DMA); listed as SEQ ID NO:1", "value": "showed antifungal activity; also recorded: display antifungal activity"}]}, {"molecule": "LBNL-9827-2: antifungal polypeptide from Monascus ruber IMV 00127; 3 additional N-terminal amino acids versus SEQ ID NO:7 (protein) DVQLSKFGGECSLKHNTCTYLKGGKNHVVNCGSAANKKCKSDRHHCEYDEHHKRVDCQTPV", "values": [{"measurement": "antifungal activity against FVE", "setting": "[1]", "value": "inhibited FVE, FGR, CGR, and DMA in a dose-dependent fashion; also recorded: inhibited Colletotrichum graminicola, Diplodia maydis, Fusarium graminearum, and Fusarium verticillioides in a dose-dependent fashion; also recorded: display antifungal activity"}, {"measurement": "antifungal activity against FGR", "setting": "[2]; listed as SEQ ID NO:9", "value": "inhibited FVE, FGR, CGR, and DMA in a dose-dependent fashion; also recorded: inhibited Colletotrichum graminicola, Diplodia maydis, Fusarium graminearum, and Fusarium verticillioides in a dose-dependent fashion; also recorded: display antifungal activity"}, {"measurement": "antifungal activity against CGR", "setting": "[3]; listed as SEQ ID NO:9", "value": "inhibited FVE, FGR, CGR, and DMA in a dose-dependent fashion; also recorded: inhibited Colletotrichum graminicola, Diplodia maydis, Fusarium graminearum, and Fusarium verticillioides in a dose-dependent fashion; also recorded: display antifungal activity"}, {"measurement": "antifungal activity against DMA", "setting": "Diplodia maydis (DMA); listed as SEQ ID NO:9", "value": "inhibited FVE, FGR, CGR, and DMA in a dose-dependent fashion; also recorded: inhibited Colletotrichum graminicola, Diplodia maydis, Fusarium graminearum, and Fusarium verticillioides in a dose-dependent fashion; also recorded: display antifungal activity"}]}]}
